Measurements published in EP3650451A1, “COMPOUNDS AND THEIR USES AS FLUORESCENT PROBES” (Consejo Superior de Investigaciones Cientificas, priority 2017, dated 2019).

Experiments:
[1] = Stability in water: time evolution in D2O followed by 1H NMR (hydrolysis); format: physicochemical; conditions: 15 mM solution in D2O at 25 °C, read-out: t1/2 (hydrolysis) (converted)
Description: One of the critical factors that conditions the viability and applicability of functional dyes 3 and 4 as fluorescent mitochondrial probes is their stability in water, since these compounds contain two potentially labile B-O bonds linking the fluorophore with the carnitine substituent. This stability was determined analyzing the time evolution of 3 and 4 in a 15 mM solution in D2O at 25 °C using ^1H NMR. This technique makes it possible not only to define their stability, but also to identify the possible degradation products (Diagram 2). Both probes are hydrolyzed, generating free carnitine and the corresponding 4,4-dihydroxy-BODIPY derivatives 5 and 6. [drawing 8]
Compound 3 is quickly hydrolyzed (t1/2 = 10 min); however, the greater substitution of the tetramethylated derivative in 4 gives it greater stability (t1/2 = 6 h), which promotes its use as a fluorescent marker in live cells. Contrary to what might be believed, the generation of free carnitine and of the corresponding BODIPY derivatives 5 and 6 at physiological pH is, indeed, an advantage for its application in cell labels. Thus, (R)-carnitine is incorporated into the mitochondrial metabolism, while the boron of the hydrolyzed BODIPY can covalently bond to poly-hydroxilated molecules (for example, saccharides and glycoproteins), generating cyclic boronic esters. […]

SCC38 cells [2] = test: Co-localization by co-staining with MitoTracker Red, fluorescence microscopy of live cells; format: cell-based, human; conditions: compound 4 50 nM, MitoTracker® Red 25 nM, 30 minutes
Description: The cell assays were carried out on two human cell lines: SCC38 and HeLa. The SCC38 line is derived from human laryngeal epidermoid carcinoma patients, while HeLa, the first human cell line established in culture, is derived from cervical cancer. The culture medium used for both cell lines was DMEM (Dulbecco's Modified Eagle's Medium) supplemented with 10% of fetal bovine serum (FBS), 100 U/mL of penicillin, 200 µg/mL of streptomycin, 100 µmol/L of non-essential amino acids and 2 mmol/L of glutamine. The cultures were incubated at 37 °C and 5% of CO2.
These cell lines were stained with the fluorescent probes synthesized following the following protocol: 30,000-50,000 SCC38 cells were plated on 24-well glass-bottomed plates and cultured to 70% confluence. The culture medium was then removed from the well and washed at least three times with DMEM medium without additives. Next, 1 mL of DMEM and the corresponding fluorescent compound was added to the well. The cells were incubated at 37 °C for 30 minutes, after which the medium was removed and newly washed with DMEM. Lastly, complete medium was added and the cells were observed under the microscope. Microscopy analysis was performed using a Zeiss Axio Observer Z1 microscope with AxioCam MRM and ApoTome 2 (Carl Zeiss, Germany) with different 40X 63X oil immersion objectives. The cells were also stained with MitoTracker® Red CMXRos (Thermo Fisher), following the manufacturer's instructions, with the aim of carrying out comparative studies with the new fluorescent markers synthesized herein. Initially, both compounds 3 and 4 were used at a concentration of 50 nM, and staining time was also 30 minutes.
In order to confirm the specificity of the mitochondrial labeling, co-localization studies were carried out by co-staining with the commercial mitochondrial marker MitoTracker® Red in the cell line. Compound 4 was used at a concentration of 50 nM and MitoTracker® Red at 25 nM. Both compounds were added simultaneously and incubated for 30 minutes.

SCC38 cells [3] = test: Inhibition of mitochondrial staining by (R)-palmitoylcarnitine (CACT substrate), flow cytometry; format: cell-based, human; conditions: co-incubation, probe 50 nm, (R)-palmitoylcarnitine 100, 250 and 500 nM
Description: The SCC38 cells were co-incubated with the indicated concentrations of (R)-palmitoylcarnitine and 50 nM of 4 (A) or 50 nM of MitoTracker (B) before analyzing by flow cytometry. The data represent the mean fluorescence intensity (MFI) of the stained cells (upper panels) and representative images of the cytometry profiles (lower panels). • Fig. 7.
To test if CACT was in fact involved in the channeling of 4 to the mitochondrial matrix, we firstly studied the effect of (R)-(+)-palmitoylcarnitine, a natural CACT substrate, in cell labeling by 4.

With `CC1=CC(C)=[N+]2C1=C(c1c(C)cc(C)cc1C)c1c(C)cc(C)n1[B-]21OC(=O)C[C@H](C[N+](C)(C)C)O1` (some centres unmarked) [Compound 4] the half-life at 15000 µM [1] was 6 h, the “location of the stain in the mitochondria” value (SCC38 cells [2]; co-staining) was “preferably located in its interior (the mitochondrial matrix)” and the “co-localization with MitoTracker® Red” value (SCC38 cells [2]; added simultaneously) was “good co-localization”. For the same molecule, the cytotoxic effects (SCC38 cells [2]; simultaneous co-staining) was “without interferences or cytotoxic effects” and the “effect of (R)-palmitoylcarnitine on fluorescence intensity” value (SCC38 cells [3]) was “concentration-dependent reduction of fluorescence intensity”.
